Patent US20230192657A1, “1,2,4-TRIAZOLINONE CB1 INHIBITORS” (Goldfinch Bio, Inc., priority 2020, published 2023)

target: CB1 receptor (Homo sapiens, UniProt P21554); experiment: CB1 cAMP Antagonist Assay (LANCE Ultra cAMP kit); type: cell-based; details: Flp-In CHO cells stably expressing the CB1 receptor; forskolin and CP55940 agonist at EC90; cAMP FRET readout
Source text: CB1 cAMP Antagonist Assay
LANCE Ultra cAMP kit (Perkin Elmer) was used to quantitate the amount of 3′,5′-cyclic adenosine monophosphate (cAMP) produced in Flp-In CHO (Invitrogen) cells stably expressing the CB1 receptor.
Forskolin was initially titrated to determine the response of the cells. The EC90 of forskolin was used for compound testing. CP55940 was titrated and used with EC90 of forskolin to determine the level of agonist stimulation. EC90 of the agonist was used for subsequent compound testing.
Forskolin (Sigma), CP55940 (Cayman Chemicals), and AM251 (MCE) were diluted in 100% DMSO, starting at 100 mM, 1 mM, and 1 mM respectively, in 3-fold serial dilutions. Test compounds were diluted in 100% DMSO starting from 10 mM, 3-fold dilutions. The cAMP assay buffer contains 1x Hank’s Buffered Saline Solution with Ca^2+ and Mg^2+ (Invitrogen), 5.3 mM HEPES (Invitrogen), 0.05% BSA, 0.5 mM IBMX (Sigma).
For all assays, cells were harvested, counted, and diluted in cAMP assay buffer to 1× 10^5 cells/mL. Only cells with viability >85% were used for the assay. Cells were seeded at 1000 cells/well in 384-well plates and 10 nL/well AM251 or test compound was added and incubated at 37° C. for 10 min. […] To detect the amount of cAMP produced, 5 µL of a 100x diluted stock of Eu-cAMP tracer and 5 µL of 200x diluted stock of Ulight-anti-cAMP were added to each well, and the plate incubated at 25° C. for 15 min. The FRET signal was read using an EnVision microplate reader (λex=320 nm, λem=615 nm and 665 nm).
The IC50 is determined by fitting the percentage of inhibition as a function of compound concentrations with the Hill equation, using a 4-parameter fit in either XLfit or GraphPad Prism.

CB1 receptor, sequence (P21554 whole entry): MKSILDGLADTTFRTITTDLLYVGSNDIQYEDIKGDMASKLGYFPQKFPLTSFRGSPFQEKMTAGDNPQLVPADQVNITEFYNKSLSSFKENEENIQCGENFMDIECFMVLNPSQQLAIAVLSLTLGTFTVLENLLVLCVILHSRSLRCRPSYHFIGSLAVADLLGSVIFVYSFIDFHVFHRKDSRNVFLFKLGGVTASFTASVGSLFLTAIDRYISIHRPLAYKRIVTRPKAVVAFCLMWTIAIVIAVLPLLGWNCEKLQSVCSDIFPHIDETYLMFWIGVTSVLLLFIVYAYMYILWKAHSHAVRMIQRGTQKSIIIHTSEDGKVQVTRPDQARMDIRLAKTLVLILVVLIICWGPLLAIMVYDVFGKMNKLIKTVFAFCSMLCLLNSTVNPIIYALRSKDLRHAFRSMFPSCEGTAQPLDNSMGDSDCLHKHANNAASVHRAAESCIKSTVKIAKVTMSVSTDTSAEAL

Row | IC50 | Structure (SMILES)
1 | 0.1 to 1 µM | C[C@@H](C(N)=O)n1c(N2C[C@@H](c3ccccc3)C(c3ccc(Cl)cc3)=N2)nn(Cc2ccc(Cl)cn2)c1=O [Compound 201]
2 | 0.1 to 1 µM | Cn1c(N2C[C@H](c3ccccc3)C(c3ccc(Cl)cc3)=N2)nn(Cc2ccc(Cl)cc2)c1=O [Compound 102]
3 | < 0.1 µM | CCOC(=O)Cn1c(N2C[C@H](c3ccccc3)C(c3ccc(Cl)cc3)=N2)nn(-c2ccc(Cl)cc2)c1=O [Compound 104, ethyl 2-[1-(4-chlorophenyl)-3-[(4S)-3-(4-chlorophenyl)-4-phenyl-4,5-dihydro-1H-pyrazol-1-yl]-5-oxo-4,5-dihydro-1H-1 ,2,4-triazol-4-yl]acetate]
4 | > 5 µM | Cn1nc(N2C[C@]3(CCc4ccccc43)C(c3ccc(Cl)cc3)=N2)n(C)c1=O [Compound 138]
5 | > 5 µM | O=c1n(-c2ccc(Cl)cc2)nc(N2C[C@@]3(CCc4ccccc43)C(c3ccc(Cl)cc3)=N2)n1CCO [Compound 112]
6 | 0.1 to 1 µM | NC(=O)Cn1c(N2C[C@H](c3ccccc3)C(c3ccc(Cl)cc3)=N2)nn(Cc2ccc(CN3CCOCC3)cc2)c1=O [Compound 145, 2-[3-[(4S)-3-(4-chlorophenyl)-4-phenyl-4,5-dihydro-1H-pyrazol-1-yl]-1-([4-[(morpholin-4-yl)methyl]phenyl]methyl)-5-oxo-4,5-dihydro-1H-1,2,4-triazol-4-yl]acetamide]
7 | < 0.1 µM | C[C@@H](C(=O)NCCO)n1c(N2C[C@H](c3ccccc3)C(c3ccc(Cl)cc3)=N2)nn(Cc2ccc(Cl)cc2)c1=O [Compound 184, (2S)-2-[3-[(4S)-3-(4-chlorophenyl)-4-phenyl-4,5-dihydropyrazol-1-yl]-1-[(4-chlorophenyl)methyl]-5-oxo-1,2,4-triazol-4-yl]-N-(2-hydroxyethyl)propanamide]
8 | 1 to 5 µM | CN1CCN(Cc2ccc(Cn3nc(N4C[C@H](c5ccccc5)C(c5ccc(Cl)cc5)=N4)n(C)c3=O)cc2)CC1 [Compound 137]
9 | 0.1 to 1 µM | O=c1n(Cc2ccc(Cl)cc2)nc(N2CC3(CCc4ccccc43)C(c3ccc(Cl)cc3)=N2)n1CCO (stereo in doubt) [Compound 121, 3-[(1S)-3-(4-chlorophenyl)-1,2,3,5-tetrahydrospiro[indene-1,4-pyrazol]-1-yl]-1-[(4-chlorophenyl)methyl]-4-(2-hydroxyethyl)-4,5-dihydro-1H-1,2,4-triazol-5-one]
10 | < 0.1 µM | NC(=O)Cn1c(N2C[C@H](c3ccccc3)C(c3ccc(Cl)cc3)=N2)nn(-c2ccc(Cl)cc2)c1=O [Compound 111, (S)-2-(1-(4-chlorophenyl)-3-(3-(4-chlorophenyl)-4-phenyl-4,5-dihydro-1H-pyrazol-1-yl)-5-oxo-1,5-dihydro-4H-1,2,4-triazol-4-yl)acetamide]
11 | 0.1 to 1 µM | Cn1c(N2CC(c3ccccc3)C(c3ccc(Cl)cc3)=N2)nn(Cc2cccc(C(N)=O)c2)c1=O (stereo not drawn) [Compound 182]
12 | 0.1 to 1 µM | CC(C(N)=O)n1c(N2C[C@H](c3ccccc3)C(c3ccc(Cl)cc3)=N2)nn(Cc2ccc(CN3CCOCC3)cc2)c1=O (stereo partly drawn) [Compound 167]
13 | > 5 µM | C[C@H](C(N)=O)n1c(N2C[C@@H](c3ccccc3)C(c3ccc(Cl)cc3)=N2)n[nH]c1=O [Compound 199]
14 | > 5 µM | C[C@H](C(N)=O)n1c(N2C[C@@H](c3ccccc3)C(c3ccc(Cl)cc3)=N2)nn(Cc2ccc(Cl)cn2)c1=O [Compound 213]
15 | 1 to 5 µM | NC(=O)CCn1c(N2CC3(CCc4ccccc43)C(c3ccc(Cl)cc3)=N2)nn(Cc2ccc(Cl)cc2)c1=O (stereo in doubt) [Compound 133, 3-[3-[(1S)-3-(4-chlorophenyl)-1,2,3,5-tetrahydrospiro[indene-1,4-pyrazol]-1-yl]-1-[(4-chlorophenyl)methyl]-5-oxo-4,5-dihydro-1H-1,2,4-triazol-4-yl]propanamide]
16 | 1 to 5 µM | C[C@H](c1ccc(Cl)cc1)n1nc(N2C[C@@H](c3ccccc3)C(c3ccc(Cl)cc3)=N2)n(CC(N)=O)c1=O [Compound 152]
17 | 0.1 to 1 µM | COCCn1c(N2CC3(CCc4ccccc43)C(c3ccc(Cl)cc3)=N2)nn(Cc2ccc(Cl)cc2)c1=O (stereo in doubt) [Compound 123, 3-[(1S)-3-(4-chlorophenyl)-1,2,3,5-tetrahydrospiro[indene-1,4-pyrazol]-1-yl]-1-[(4-chlorophenyl)methyl]-4-(2-methoxyethyl)-4,5-dihydro-1H-1,2,4-triazol-5-one]
18 | > 5 µM | C[C@@H](C(N)=O)n1c(N2C[C@@H](c3ccccc3)C(c3ccc(Cl)cc3)=N2)nn(Cc2ccc(Cl)cc2)c1=O [Compound 179]

Row | IC50 | Structure (SMILES)
19 | > 5 µM | NC(=O)Cn1c(N2C[C@@]3(CCc4ccccc43)C(c3ccc(Cl)cc3)=N2)nn(-c2ccc(Cl)cc2)c1=O [Compound 119]
20 | > 5 µM | Cn1c(N2C[C@@H](c3ccccc3)C(c3ccc(Cl)cc3)=N2)nn(CCc2ccc(C(=O)NCCO)cc2)c1=O [Compound 210]
21 | 0.1 to 1 µM | NC(=O)CCn1c(N2C[C@]3(CCc4ccccc43)C(c3ccc(Cl)cc3)=N2)nn(-c2ccc(Cl)cc2)c1=O [Compound 126, 3-[1-(4-chlorophenyl)-3-[(1R)-3-(4-chlorophenyl)-1,2,3,5-tetrahydrospiro[indene-1,4-pyrazol]-1-yl]-5-oxo-4,5-dihydro-1H-1,2,4-triazol-4-yl]propanamide]
22 | > 5 µM | O=C(O)CCn1c(N2C[C@]3(CCc4ccccc43)C(c3ccc(Cl)cc3)=N2)nn(Cc2ccc(Cl)cc2)c1=O [Compound 127]
23 | > 5 µM | Cn1c(N2C[C@@]3(CCc4ccccc43)C(c3ccc(Cl)cc3)=N2)nn(-c2ccc(Cl)cc2)c1=O [Compound 116]
24 | < 0.1 µM | COc1ccc(Cn2nc(N3C[C@H](c4ccccc4)C(c4ccc(Cl)cc4)=N3)n(C)c2=O)cc1 [Compound 143]
25 | > 5 µM | O=c1[nH]nc(N2C[C@H](c3ccccc3)C(c3ccc(Cl)cc3)=N2)[nH]1 [Compound 211, 5-[(4S)-3-(4-chlorophenyl)-4-phenyl-4,5-dihydropyrazol-1-yl]-2,4-dihydro-1,2,4-triazol-3-one]
26 | < 0.1 µM | C[C@@H](C(N)=O)n1c(N2C[C@H](c3ccccc3)C(c3ccc(Cl)cc3)=N2)nn(Cc2ccc(Cl)cc2)c1=O [Compound 176]
27 | > 5 µM | C[C@@H](C(N)=O)n1c(N2C[C@@H](c3ccccc3)C(c3ccc(Cl)cc3)=N2)n[nH]c1=O [Compound 209, (2S)-2-[3-[(4R)-3-(4-chlorophenyl)-4-phenyl-4,5-dihydropyrazol-1-yl]-5-oxo-1H-1,2,4-triazol-4-yl]propanamide]
28 | 0.1 to 1 µM | NC(=O)Cn1c(N2C[C@]3(CCc4ccccc43)C(c3ccc(Cl)cc3)=N2)nn(Cc2ccc(Cl)cc2)c1=O [Compound 122, 2-[3-[(1R)-3-(4-chlorophenyl)-1,2,3,5-tetrahydrospiro[indene-1,4-pyrazol]-1-yl]-1-[(4-chlorophenyl)methyl]-5-oxo-4,5-dihydro-1H-1,2,4-triazol-4-yl]acetamide]
29 | < 0.1 µM | Cc1ccc(Cn2nc(N3C[C@H](c4ccccc4)C(c4ccc(Cl)cc4)=N3)n(C)c2=O)cc1 [Compound 163]
30 | 0.1 to 1 µM | Cc1ccc(Cn2nc(N3CC(c4ccccc4)C(c4ccc(Cl)cc4)=N3)n(C)c2=O)cn1 (stereo not drawn) [Compound 183]
31 | 1 to 5 µM | Cn1nc(N2C[C@@]3(CCc4ccccc43)C(c3ccc(Cl)cc3)=N2)n(C)c1=O [Compound 141]
32 | < 0.1 µM | C[C@@H](c1ccc(Cl)cc1)n1nc(N2C[C@H](c3ccccc3)C(c3ccc(Cl)cc3)=N2)n(CC(N)=O)c1=O [Compound 153]
33 | > 5 µM | Cn1c(N2C[C@@H](c3ccccc3)C(c3ccc(Cl)cc3)=N2)n[nH]c1=O [Compound 181]
34 | > 5 µM | C[C@@H](C(N)=O)n1c(N2C[C@H](c3ccccc3)C(c3ccc(Cl)cc3)=N2)n[nH]c1=O [Compound 203, (2S)-2-[3-[(4S)-3-(4-chlorophenyl)-4-phenyl-4,5-dihydropyrazol-1-yl]-5-oxo-1H-1,2,4-triazol-4-yl]propanamide]
35 | 0.1 to 1 µM | Cn1c(N2C[C@H](c3ccccc3)C(c3ccc(Cl)cc3)=N2)nn(CCc2ccc(C(=O)NCCO)cc2)c1=O [Compound 200]
36 | 1 to 5 µM | NC(=O)Cn1c(N2C[C@@H](c3ccccc3)C(c3ccc(Cl)cc3)=N2)nn(Cc2ccc(Cl)cc2)c1=O [Compound 106, 2-[3-[(4R)-3-(4-chlorophenyl)-4-phenyl-4,5-dihydro-1H-pyrazol-1-yl]-1-[(4-chlorophenyl)methyl]-5-oxo-4,5-dihydro-1H-1,2,4-triazol-4-yl]acetamide]

Row | Structure (SMILES) | IC50
37 | CC(C(N)=O)n1c(N2CC(c3ccccc3)C(c3ccc(Cl)cc3)=N2)nn(CC2CCCCC2)c1=O (stereo not drawn) [Compound 158, 2-[3-[3-(4-chlorophenyl)-4-phenyl-4,5-dihydropyrazol-1-yl]-1-(cyclohexylmethyl)-5-oxo-1,2,4-triazol-4-yl]propanamide] | < 0.1 µM
38 | Cn1c(N2CC(c3ccccc3)C(c3ccc(Cl)cc3)=N2)nn(Cc2ccc(Cl)cn2)c1=O (stereo not drawn) [Compound 177] | < 0.1 µM
39 | Cn1c(N2C[C@@H](c3ccccc3)C(c3ccc(Cl)cc3)=N2)nn(Cc2ccccc2)c1=O [Compound 166] | 0.1 to 1 µM
